Tests used:
Assay in all cases: relative viability (nuclei count vs DMSO), 5 days (fraction); higher = more cells survive
[1] = compound: O=C(O)c1ccc2c(c1)nc(Nc1cccc(Cl)c1)c1ccncc12 [Silmitasertib] + Cc1nc(Nc2ncc(C(=O)Nc3c(C)cccc3Cl)s2)cc(N2CCN(CCO)CC2)n1 [Dasatinib] (partner 0.075 µM)
In short: (§1)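 The day after seeding in 1536-well plates, lung cancer cell lines were treated by pin tool with a single drug, or with a fixed anchor-drug dose together with five library-drug doses (not always all listed) in √10 steps. After 5 days, a combined fix-and-stain solution (final 0.05% Triton X-100, 1% formaldehyde, 1 ug/ml Hoechst) was added. Nuclei counted on 4× images gave relative viability as treated counts over vehicle counts, reported as the median of duplicate plates.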

[2] = compound: O=C(O)c1ccc2c(c1)nc(Nc1cccc(Cl)c1)c1ccncc12 [Silmitasertib] + O=C(CCCCCCC(=O)Nc1ccccc1)NO [Vorinostat] (partner 1 µM)
In short: as §1

[3] = compound: O=C(O)c1ccc2c(c1)nc(Nc1cccc(Cl)c1)c1ccncc12 [Silmitasertib] + CS(=O)(=O)CCNCc1ccc(-c2ccc3ncnc(Nc4ccc(OCc5cccc(F)c5)c(Cl)c4)c3c2)o1 [Lapatinib] (partner 2 µM)
In short: as §1

[4] = compound: O=C(O)c1ccc2c(c1)nc(Nc1cccc(Cl)c1)c1ccncc12 [Silmitasertib] + CC1(C)CCC(c2ccc(Cl)cc2)=C(CN2CCN(c3ccc(C(=O)NS(=O)(=O)c4ccc(N[C@H](CCN5CCOCC5)CSc5ccccc5)c(S(=O)(=O)C(F)(F)F)c4)cc3)CC2)C1 [Navitoclax] (partner 0.5 µM)
In short: as §1

[5] = compound: O=C(O)c1ccc2c(c1)nc(Nc1cccc(Cl)c1)c1ccncc12 [Silmitasertib]
In short: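 Vehicle-anchored 1536-well plates of lung cancer cell lines, held overnight at 37 °C, were pinned with five library-drug doses (not always all listed) spaced by √10. No medium change followed over the next 5 days, after which the cells were fixed, permeabilised and Hoechst-stained together and imaged at 4×. Nuclei were counted with MetaXpress, and viability is treated-well nuclei over vehicle-well nuclei, taken as a median across plates. Plates passed with control CV below 25% and at least one doubling.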

Cell Line	relative viability ([1]; first compound 0.04 µM)	relative viability ([1]; first compound 0.4 µM)	relative viability ([1]; first compound 1.265 µM)	relative viability ([1]; first compound 4 µM)	relative viability ([2]; first compound 0.04 µM)	relative viability ([2]; first compound 0.4 µM)	relative viability ([2]; first compound 1.265 µM)	relative viability ([2]; first compound 4 µM)	relative viability ([3]; first compound 0.04 µM)	relative viability ([3]; first compound 0.4 µM)	relative viability ([3]; first compound 1.265 µM)	relative viability ([3]; first compound 4 µM)	relative viability ([4]; first compound 0.04 µM)	relative viability ([4]; first compound 0.4 µM)	relative viability ([4]; first compound 1.265 µM)	relative viability ([4]; first compound 4 µM)	relative viability ([5]; 0.04 µM)	relative viability ([5]; 0.4 µM)	relative viability ([5]; 1.265 µM)	relative viability ([5]; 4 µM)
NCI-H2126	0.602	0.584	0.573	0.539	0.863	0.607	0.693	0.406	0.803	0.759	0.691	0.544	0.897	0.847	0.81	0.745	0.996	0.824	0.939	0.81
NCI-H2085	0.253	0.233	0.245	0.265	0.837	0.638	0.725	0.548	0.916	0.509	0.674	0.507	1.15	0.942	0.933	0.874	1.03	0.779	0.941	0.902
BEN	0.382		0.295	0.233	0.648	0.475	0.456	0.545	0.691	0.637	0.589	0.445	0.0617	0.0687	0.059	0.0431	1.16	0.795	1	0.885
PC-14	0.273	0.236	0.293	0.388	0.893		0.734	0.482	0.325	0.347	0.381	0.391	1.12	1.09	1.07	1.11	1.2	0.703	1.02	0.735
NCI-H2228	0.517		0.523	0.528	0.848	0.513	0.779	0.875	1.16	0.944	1.03	1	0.981	0.579	0.586	1.16	0.949	0.715	1.12	1.06
COR-L23	0.535	0.404	0.426	0.408	0.62	0.378	0.525	0.401	1.15	0.792	0.92	0.457	1.1	0.982	1.06	0.968	1.07	0.782	1.09	0.831
NCI-H1915	0.32		0.332	0.192	0.54		0.519	0.413	0.994		1.02	0.397	0.839		0.888	0.64	1.01		1.03	0.554
